# Experimental data: ChEMBL document CHEMBL3102748, “Structure-activity relationship studies on acremomannolipin A, the potent calcium signal modulator with a novel glycolipid structure 2: Role of the alditol side chain stereochemistry” (Bioorg Med Chem, 2014)
# Active and inactive are the calls of the source. No cut-off for these calls is given here.
# System: Schizosaccharomyces pombe
# Assay: Induction of calcium signaling pathway-mediated cell growth in ppb1-deficient Schizosaccharomyces pombe h+ leu1 ura4-D18 ppb1::ura4+ at 100 uM after 3 days by filter paper disc method in presence of MgCl2
# Assay type: functional, organism-based
row,SMILES,Activity
1,CCCCCCCC(=O)O[C@@H]1[C@H](OC[C@@H](O)[C@H](O)[C@@H](O)[C@@H](O)CO)O[C@H](COC(=O)CCCCC)[C@@H](OC(=O)CCCCC)[C@@H]1OC(=O)CCCCC,Active
2,CCCCCCCC(=O)O[C@@H]1[C@H](OC[C@@H](O)[C@H](O)[C@H](O)[C@@H](O)CO)O[C@H](COC(=O)CCCCC)[C@@H](OC(=O)CCCCC)[C@@H]1OC(=O)CCCCC,Active
3,CCCCCCCC(=O)O[C@@H]1[C@H](OC[C@@H](O)[C@@H](O)[C@H](O)[C@@H](O)CO)O[C@H](COC(=O)CCCCC)[C@@H](OC(=O)CCCCC)[C@@H]1OC(=O)CCCCC,Active
4,CCCCCCCC(=O)O[C@@H]1[C@H](OC[C@H](O)[C@@H](O)[C@H](O)[C@H](O)CO)O[C@H](COC(=O)CCCCC)[C@@H](OC(=O)CCCCC)[C@@H]1OC(=O)CCCCC,Active
5,CCCCCCCC(=O)O[C@@H]1[C@H](OC[C@H](O)[C@@H](O)[C@@H](O)[C@H](O)CO)O[C@H](COC(=O)CCCCC)[C@@H](OC(=O)CCCCC)[C@@H]1OC(=O)CCCCC,Active
6,CCCCCCCC(=O)O[C@@H]1[C@H](OC[C@@H](O)[C@@H](O)[C@H](O)[C@H](O)CO)O[C@H](COC(=O)CCCCC)[C@@H](OC(=O)CCCCC)[C@@H]1OC(=O)CCCCC,Active
